From patent publication US9718819B2 (Merck Sharp & Dohme Corp., priority 2012, dated 2017)

molecular target: HIV-1 RT wild-type enzyme (Human immunodeficiency virus type 1 group M subtype B (isolate HXB2) (HIV-1), UniProt P04585); experiment: HIV-1 reverse transcriptase inhibitory activity (RT polymerase assay); type: biochemical; settings: HIV-1 RT wild-type enzyme 83 pM; RNA-dependent DNA polymerase activity; read-out: IC50
Procedure: Determination of HIV-1 Reverse Transcriptase Inhibitory Activity
The heterodimeric nucleic acid substrate used in the HIV-1 RT polymerase reactions was generated by annealing the DNA primer, biotinylated pD500 (Sigma Aldrich, USA, 5′-biotin-ttg aaa tga ctg cgg tac ggc-3′), SEQ ID NO. 1 to the nucleotide RNA template t500 (derived from hepatitis C virus [HCV] sequence, IBA, Germany, 5′-[…]-3′), SEQ ID NO 2). […] The mixture was then preincubated on an orbital shaker for 30 min at room temperature in microtiter plates (Costar 3365, Corning, USA). A polymerization reaction was initiated by the addition of RNA template/pD500 DNA primer hybrid (16.6 nM final of RNA/DNA hybrid) and dNTPs (2 μM dATP, dGTP, dCTP and 66.6 nM Ru-dUTP (Meso Scale Discovery, USA)). Plate was sealed and incubated for 5-10 min at room temperature on an orbital shaker. Plate was then incubated for 90 min at 37° C. and reactions quenched with 60 μl quenching buffer (50 mM EDTA, 0.7% BSA, 0.7% Tween-20, 0.017% sodium azide in PBS). The resulting solution was incubated at room temperature for an additional 5 min and then 50 μL was transferred to pre-blocked Avidin plates (L15AA, Meso Scale Discovery). Each well of Avidin plate was blocked for 1 h at room temperature with 100 μL 5% BSA in PBS. Blocking solution was removed by tapping vigorously on filter paper to remove all excess liquid. Reaction on pre-blocked avidin plate proceeded for 60 min at room temperature and then contents removed by tapping vigorously on filter paper to remove all excess liquid. After washing plate 3 times with 150 μL 1×PBS and blotting dry between cycles, 150 μL 1× Read Buffer T (4× Read Buffer T, Meso Scale Discovery) was added and incubated for 5 min at room temperature before counting on a Sector Imager […] (Meso Scale Discovery). Titration curves and IC50 values were calculated using a four parameter logisitc fit according to standard procedures. Briefly, % Inhibition=100×((sample raw value)−(mean value of the low control or 0% inhibition))/((mean value of wells representing 100% inhbition)−(mean value of 0% inhbition)). In this assay, low control wells contain DMSO (0% inhbition) and 100% inhibition wells contain 1 μM efavirenz.

Compound	IC50
CC(F)(F)c1cc(Cn2cnc(C(C)(F)F)c(Oc3cccc(C#N)c3F)c2=O)c(=O)[nH]n1 [Example 182, 3-((4-(1,1-difluoroethyl)-1-((6-(1,1-difluoroethyl)-3-oxo-2,3-dihydropyridazin-4-yl)methyl)-6-oxo-1,6-dihydropyrimidin-5-yl)oxy)-2-fluorobenzonitrile]	9 nM
CS(=O)(=O)c1ccc(-c2cc(Cn3cnc(C(F)(F)F)c(Oc4cc(Cl)cc(C#N)c4)c3=O)n[nH]c2=O)cc1 [Example 67, 3-chloro-5-((1-((5-(4-(methylsulfonyl)phenyl)-6-oxo-1,6-dihydropyridazin-3-yl)methyl)-6-oxo-4-(trifluoromethyl)-1,6-dihydropyrimidin-5-yl)oxy)benzonitrile]	12 nM
COc1cccc(F)c1-c1cc(Cn2cnc(C(F)(F)F)c(Oc3cc(Cl)cc(C#N)c3)c2=O)n[nH]c1=O [Example 51, 3-chloro-5-((1-((5-(2-fluoro-6-methoxyphenyl)-6-oxo-1,6-dihydropyridazin-3-yl)methyl)-6-oxo-4-(trifluoromethyl)-1,6-dihydropyrimidin-5-yl)oxy)benzonitrile]	358 nM
Cc1c(C#N)cc(F)cc1Oc1c(C(F)(F)F)ncn(Cc2cc(-c3ccc(F)cc3)c(=O)[nH]n2)c1=O [Example 168, 5-fluoro-3-((1-((5-(4-fluorophenyl)-6-oxo-1,6-dihydropyridazin-3-yl)methyl)-6-oxo-4-(trifluoromethyl)-1,6-dihydropyrimidin-5-yl)oxy)-2-methylbenzonitrile]	5 nM
Cc1cc(F)ccc1-c1cc(Cn2cnc(C(F)(F)F)c(Oc3cc(Cl)cc(C#N)c3)c2=O)n[nH]c1=O [Example 56, 3-chloro-5-((1-((5-(4-fluoro-2-methylphenyl)-6-oxo-1,6-dihydropyridazin-3-yl)methyl)-6-oxo-4-(trifluoromethyl)-1,6-dihydropyrimidin-5-yl)oxy)benzonitrile]	76 nM
N#Cc1cc(Cl)cc(Oc2c(C(F)(F)F)ncn(Cc3cc(-c4cc(Cl)ccc4F)c(=O)[nH]n3)c2=O)c1 [Example 47, 3-chloro-5-((1-((5-(5-chloro-2-fluorophenyl)-6-oxo-1,6-dihydropyridazin-3-yl)methyl)-6-oxo-4-(trifluoromethyl)-1,6-dihydropyrimidin-5-yl)oxy)benzonitrile]	11 nM
Cc1cc(-c2cc(Cn3cnc(C(F)(F)F)c(Oc4cc(Cl)cc(C#N)c4)c3=O)n[nH]c2=O)ccc1F [Example 37, 3-chloro-5-((1-((5-(4-fluoro-3-methylphenyl)-6-oxo-1,6-dihydropyridazin-3-yl)methyl)-6-oxo-4-(trifluoromethyl)-1,6-dihydropyrimidin-5-yl)oxy)benzonitrile]	5 nM
N#Cc1cc(Cl)cc(Oc2c(C(F)(F)F)ncn(Cc3cc(-c4cccc(Cl)c4)c(=O)[nH]n3)c2=O)c1 [Example 36, 3-chloro-5-((1-((5-(3-chlorophenyl)-6-oxo-1,6-dihydropyridazin-3-yl)methyl)-6-oxo-4-(trifluoromethyl)-1,6-dihydropyrimidin-5-yl)oxy)benzonitrile]	4 nM
N#Cc1cc(Cl)cc(Oc2c(C(F)(F)F)ncn(Cc3cc(-n4cccn4)c(=O)[nH]n3)c2=O)c1 [Example 93, 3-chloro-5-((6-oxo-1-((6-oxo-5-(1H-pyrazol-1-yl)-1,6-dihydropyridazin-3-yl)methyl)-4-(trifluoromethyl)-1,6-dihydropyrimidin-5-yl)oxy)benzonitrile]	11 nM
COc1ccc(F)cc1-c1cc(Cn2cnc(C(F)(F)F)c(Oc3cc(Cl)cc(C#N)c3)c2=O)n[nH]c1=O [Example 59, 3-chloro-5-((1-((5-(5-fluoro-2-methoxyphenyl)-6-oxo-1,6-dihydropyridazin-3-yl)methyl)-6-oxo-4-(trifluoromethyl)-1,6-dihydropyrimidin-5-yl)oxy)benzonitrile]	125 nM
N#Cc1cc(Cl)cc(Oc2c(C(F)(F)F)ncn(Cc3cc(-n4ccnn4)c(=O)[nH]n3)c2=O)c1 [Example 94, 3-chloro-5-((6-oxo-1-((6-oxo-5-(1H-1,2,3-triazol-1-yl)-1,6-dihydropyridazin-3-yl)methyl)-4-(trifluoromethyl)-1,6-dihydropyrimidin-5-yl)oxy)benzonitrile]	48 nM
N#Cc1cc(Cl)cc(Oc2c(C(F)(F)F)ncn(Cc3cc(-c4cccnc4)n[nH]c3=O)c2=O)c1 [Example 124, 3-chloro-5-((6-oxo-1-((3-oxo-6-(pyridin-3-yl)-2,3-dihydropyridazin-4-yl)methyl)-4-(trifluoromethyl)-1,6-dihydropyrimidin-5-yl)oxy)benzonitrile]	6 nM
N#Cc1cc(Cl)cc(Oc2c(C(F)(F)F)ncn(Cc3cc(-c4ccc(Cl)cc4)c(=O)[nH]n3)c2=O)c1 [Example 28, 3-chloro-5-((1-((5-(4-chlorophenyl)-6-oxo-1,6-dihydropyridazin-3-yl)methyl)-6-oxo-4-(trifluoromethyl)-1,6-dihydropyrimidin-5-yl)oxy)benzonitrile]	5 nM
N#Cc1cccc(Oc2c(C(F)(F)F)ncn(Cc3ccc(=O)[nH]n3)c2=O)c1F [Example 161, 2-fluoro-3-(6-oxo-1-((6-oxo-1,6-dihydropyridazin-3-yl)methyl)-4-(trifluoromethyl)-1,6-dihydropyrimidin-5-yloxy)benzonitrile]	24 nM
CC(F)c1cc(Cn2cnc(C(F)(F)F)c(Oc3cc(Cl)cc(C#N)c3)c2=O)n[nH]c1=O (centres unmarked) [Example 15, 3-chloro-5-((1-((5-(1-fluoroethyl)-6-oxo-1,6-dihydropyridazin-3-yl)methyl)-6-oxo-4-(trifluoromethyl)-1,6-dihydropyrimidin-5-yl)oxy)benzonitrile]	13 nM
N#Cc1cc(Cl)cc(Oc2c(C(F)(F)F)ncn(Cc3cc(-c4cn[nH]c4)c(=O)[nH]n3)c2=O)c1 [Example 71, 3-chloro-5-((6-oxo-1-((6-oxo-5-(1H-pyrazol-4-yl)-1,6-dihydropyridazin-3-yl)methyl)-4-(trifluoromethyl)-1,6-dihydropyrimidin-5-yl)oxy)benzonitrile]	5 nM
Cn1cc(Cn2cnc(C(F)(F)F)c(Oc3cc(Cl)cc(C#N)c3)c2=O)ncc1=O [Example 3, 3-chloro-5-((1-((4-methyl-5-oxo-4,5-dihydropyrazin-2-yl)methyl)-6-oxo-4-(trifluoromethyl)-1,6-dihydropyrimidin-5-yl)oxy)benzonitrile]	33 nM
Cc1ncn(Cc2cc(C(C)(F)F)n[nH]c2=O)c(=O)c1Oc1cc(Cl)cc(C#N)c1 [Example 181, 3-chloro-5-((1-((6-(1,1-difluoroethyl)-3-oxo-2,3-dihydropyridazin-4-yl)methyl)-4-methyl-6-oxo-1,6-dihydropyrimidin-5-yl)oxy)benzonitrile]	12 nM
COC(=O)c1cc(Cn2cnc(C(F)(F)F)c(Oc3cc(Cl)cc(C#N)c3)c2=O)n[nH]c1=O [Example 100, methyl 6-((5-(3-chloro-5-cyanophenoxy)-6-oxo-4-(trifluoromethyl)pyrimidin-1(6H)-yl)methyl)-3-oxo-2,3-dihydropyridazine-4-carboxylate]	23 nM
CC(=O)c1ncc(Cn2cnc(C(F)(F)F)c(Oc3cc(Cl)cc(C#N)c3)c2=O)c(=O)[nH]1 [Example 156, 3-((1-((2-acetyl-6-oxo-1,6-dihydropyrimidin-5-yl)methyl)-6-oxo-4-(trifluoromethyl)-1,6-dihydropyrimidin-5-yl)oxy)-5-chlorobenzonitrile]	24 nM
Cc1ccc(-c2cc(Cn3cnc(C(F)(F)F)c(Oc4cc(Cl)cc(C#N)c4)c3=O)n[nH]c2=O)c(F)c1 [Example 42, 3-chloro-5-((1-((5-(2-fluoro-4-methylphenyl)-6-oxo-1,6-dihydropyridazin-3-yl)methyl)-6-oxo-4-(trifluoromethyl)-1,6-dihydropyrimidin-5-yl)oxy)benzonitrile]	7 nM
N#Cc1cc(F)cc(Oc2c(C(F)(F)F)ncn(Cc3ccc(=O)[nH]n3)c2=O)c1 [Example 19, 3-fluoro-5-((6-oxo-1-((6-oxo-1,6-dihydropyridazin-3-yl)methyl)-4-(trifluoromethyl)-1,6-dihydropyrimidin-5-yl)oxy)benzonitrile]	31 nM
N#Cc1cc(Cl)cc(Oc2c(C(F)(F)F)ncn(Cc3cc(-c4cncc(F)c4)c(=O)[nH]n3)c2=O)c1 [Example 82, 3-chloro-5-((1-((5-(5-fluoropyridin-3-yl)-6-oxo-1,6-dihydropyridazin-3-yl)methyl)-6-oxo-4-(trifluoromethyl)-1,6-dihydropyrimidin-5-yl)oxy)benzonitrile]	7 nM
